Inhibition data for 24 molecules are collected here from US9562036B2, “Fluoromethyl-substituted pyrrole carboxamides as CaV2.2 calcium channel blockers” (GRÜNENTHAL GMBH, priority 2013, dated 2017).

The assay deals with T1, Human CaV2.2 channels (Homo sapiens, UniProt Q00975).
T1 construct: expressed in transfected cells; also stably expressing Kir2.3)
T1 sequence (Q00975 whole entry): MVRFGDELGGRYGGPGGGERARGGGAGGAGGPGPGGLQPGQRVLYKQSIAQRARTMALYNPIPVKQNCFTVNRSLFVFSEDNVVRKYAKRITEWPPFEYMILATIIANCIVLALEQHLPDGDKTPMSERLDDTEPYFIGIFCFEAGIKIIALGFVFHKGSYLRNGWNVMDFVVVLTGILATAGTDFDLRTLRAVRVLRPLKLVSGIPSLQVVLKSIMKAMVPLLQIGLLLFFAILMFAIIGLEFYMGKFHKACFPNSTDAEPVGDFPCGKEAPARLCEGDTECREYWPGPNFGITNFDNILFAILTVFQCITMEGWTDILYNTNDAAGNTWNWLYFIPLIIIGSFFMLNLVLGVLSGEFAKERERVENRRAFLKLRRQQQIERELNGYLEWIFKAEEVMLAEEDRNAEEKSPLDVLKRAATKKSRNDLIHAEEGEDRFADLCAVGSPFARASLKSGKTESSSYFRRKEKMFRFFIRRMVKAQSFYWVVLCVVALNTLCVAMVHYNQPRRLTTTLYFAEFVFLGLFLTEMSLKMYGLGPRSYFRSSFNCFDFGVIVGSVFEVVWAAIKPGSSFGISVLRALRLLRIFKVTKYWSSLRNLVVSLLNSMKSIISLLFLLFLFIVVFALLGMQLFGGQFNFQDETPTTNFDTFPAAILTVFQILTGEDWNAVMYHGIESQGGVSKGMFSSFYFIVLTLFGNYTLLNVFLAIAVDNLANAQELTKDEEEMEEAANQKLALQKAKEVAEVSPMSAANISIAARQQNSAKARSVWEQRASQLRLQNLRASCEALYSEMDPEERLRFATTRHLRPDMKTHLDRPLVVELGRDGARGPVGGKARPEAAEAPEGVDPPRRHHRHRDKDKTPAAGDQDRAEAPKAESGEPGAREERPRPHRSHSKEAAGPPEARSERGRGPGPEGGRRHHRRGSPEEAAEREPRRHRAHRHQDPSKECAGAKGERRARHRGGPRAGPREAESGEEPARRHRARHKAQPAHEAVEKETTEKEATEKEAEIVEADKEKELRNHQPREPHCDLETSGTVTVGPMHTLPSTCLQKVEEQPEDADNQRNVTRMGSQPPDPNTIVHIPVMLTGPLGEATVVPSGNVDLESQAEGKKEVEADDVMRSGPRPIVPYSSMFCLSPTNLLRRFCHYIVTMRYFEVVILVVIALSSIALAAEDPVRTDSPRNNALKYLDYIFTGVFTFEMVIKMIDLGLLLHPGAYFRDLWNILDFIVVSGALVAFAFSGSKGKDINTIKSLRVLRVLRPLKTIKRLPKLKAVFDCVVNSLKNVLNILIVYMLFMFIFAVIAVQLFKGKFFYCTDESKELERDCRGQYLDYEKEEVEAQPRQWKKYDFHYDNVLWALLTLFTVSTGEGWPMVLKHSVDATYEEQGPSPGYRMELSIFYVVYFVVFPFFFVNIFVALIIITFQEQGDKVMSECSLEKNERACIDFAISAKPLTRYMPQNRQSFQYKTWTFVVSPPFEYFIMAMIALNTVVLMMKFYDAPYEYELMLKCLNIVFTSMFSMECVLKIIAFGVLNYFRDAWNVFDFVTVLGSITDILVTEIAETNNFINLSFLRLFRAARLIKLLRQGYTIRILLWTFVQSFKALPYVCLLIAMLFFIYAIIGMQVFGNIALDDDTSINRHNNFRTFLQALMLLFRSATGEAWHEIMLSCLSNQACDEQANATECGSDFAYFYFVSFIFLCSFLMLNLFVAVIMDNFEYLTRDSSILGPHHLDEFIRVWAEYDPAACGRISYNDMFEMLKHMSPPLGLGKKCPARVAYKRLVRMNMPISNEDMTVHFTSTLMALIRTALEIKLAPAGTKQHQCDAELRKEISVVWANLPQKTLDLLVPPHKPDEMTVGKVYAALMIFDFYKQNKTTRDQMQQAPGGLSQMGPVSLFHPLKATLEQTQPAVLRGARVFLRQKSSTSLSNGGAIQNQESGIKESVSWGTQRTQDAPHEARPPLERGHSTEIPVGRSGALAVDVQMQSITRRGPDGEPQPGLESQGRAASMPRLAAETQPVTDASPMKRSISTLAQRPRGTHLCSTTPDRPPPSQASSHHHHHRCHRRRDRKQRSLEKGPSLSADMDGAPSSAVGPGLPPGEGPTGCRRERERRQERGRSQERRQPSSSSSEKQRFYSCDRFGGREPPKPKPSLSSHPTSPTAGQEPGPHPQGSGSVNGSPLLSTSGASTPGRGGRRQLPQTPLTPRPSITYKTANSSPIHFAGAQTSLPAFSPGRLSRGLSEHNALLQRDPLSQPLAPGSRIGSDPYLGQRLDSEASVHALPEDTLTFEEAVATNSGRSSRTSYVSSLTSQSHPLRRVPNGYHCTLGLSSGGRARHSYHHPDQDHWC
Kind of assay: Fluorescent assay for CaV2.2 channels using potassium depolarization to induce channel opening (FLIPR, Fluo 4). In kind it is cell-based. To be noted: 3 μM test compound; 30 mM KCl alternative assay buffer (inactivated channel state); HEK293 cells; read-out: %-Inhib (CaV2.2) @3 μM @30 mM KCl. An excerpt: In the process, the Ca^2+ influx is quantified in the FLIPR assay with the aid of a Ca^2+-sensitive dye (type Fluo-4, Molecular Probes Europe BV, Leiden, the Netherlands) in a fluorescent imaging plate reader (FLIPR 3, Molecular Devices, Sunnyvale, USA), as described hereinafter.
2. Assay Descriptions and Biological Data: 2.1 Fluorescent Assay for CaV2.2 Channels Using Potassium Depolarization to Induce Channel Opening
Human CaV2.2 channels were stably expressed in HEK293 cells together with alpha2-delta and beta subunits of voltage gated calcium channels. In addition, an inwardly rectifying potassium channel (Kir2.3) was stably expressed in these cells to augment control of the cell membrane potential by the concentration of extracellular potassium ions. Raise of the extracellular potassium concentration leads to depolarization of the membrane potential and thus regulates the voltage dependent state of CaV2.2 channels. For preparation, cells were seeded in black poly-D-lysine coated 96-well plates (Becton Dickinson, Biocoat 4640) in 100 μL medium [500 mL DMEM/F-12 plus Glutamax (Invitrogen 31331-093) plus 5.5 mL MEM NEAA 100× (Invitrogen 11140-035) plus 50 mL FBS decomplemented (Invitrogen 10270-106) plus 200 μg/mL Geneticin (Invitrogen 10131-027) plus 50 μg/mL Hygromycin B (Invitrogen 10687-010) plus 2 μg/mL Blasticidin (anti-bl5b Invivo-Gen) plus 0.2 μg/mL Puromycin (A 11138-03)] at a cell density of 30.000 cells per well. Plates were incubated at 37° C. (5% CO2) for 20 to 23 h. On the day of experiment medium was discarded and cells were loaded with Fluo 4 by addition of 100 μL of basic assay buffer (10 mM HEPES, 1 mM KCl, 149 mM NaCl, 0.8 mM CaC2, 1.7 mM MgCl2, 10 mM Glucose, 0.1% BSA. pH 7.4) containing 2 μM Fluo 4 (Molecular Probes; F-14201), 0.01% pluronic acid (Molecular Probes; P-6866) and 2.5 mM probenecid (Molecular Probes; P36400). Cells were incubated in the dark at 25° C. for 60 min. Then dye containing buffer was discarded and 100 μL basic (1 mM KCl) or alternative (30 mM KCl) assay buffer was added. The alternative assay buffer contained altered concentrations of KCl (30 mM) and NaCl (120 mM) and was used in order to promote the inactivated channel state. After that 25 μL of basic or alternative assay buffer with or without test compound were added and cells were incubated again in the dark at 25° C. for 15 min. Fluorescence intensity was measured on a FLIPR 3 instrument (Molecular Devices Corp., Sunnyvale, Calif.) with excitation at 480 nm and emission at 535 nm. After continuously reading fluorescence for 30 sec, 50 μL of basic assay buffer containing 210 mM KCl (NaCl omitted) were added for depolarization. Peak fluorescent signal intensity was determined and the amplitude of the peak signal, normalized to base line, was used to measure channel inhibition by test compounds.
On to `COc1cnc(-c2c(C)c(C(F)(F)F)n(Cc3ccccc3)c2C(=O)N(C)CC(C)(C)C)cn1` [Example 01, 1-benzyl-3-(5-methoxypyrazin-2-yl)-N,4-dimethyl-N-neopentyl-5-(trifluoromethyl)-1H-pyrrole-2-carboxamide], for which the inhibition at 3 µM is 75 to 95%.

As to `COc1ccc(-c2c(C)c(C(F)(F)F)n(Cc3ccccc3)c2C(=O)N(C)CC(C)(C)C)cn1` [Example 02, 1-Benzyl-3-(6-methoxypyridin-3-yl)-N,4-dimethyl-N-neopentyl-5-(trifluoromethyl)-1H-pyrrole-2-carboxamide], the inhibition at 3 µM lay in the range of 40 to 75%.

In the case of `Cc1c(-c2ccc(O)nc2)c(C(=O)N(C)CC(C)(C)C)n(Cc2ccccc2)c1C(F)(F)F` [Example 03, 1-Benzyl-3-(6-hydroxypyridin-3-yl)-N,4-dimethyl-N-neopentyl-5-(trifluoromethyl)-1H-pyrrole-2-carboxamide], the inhibition at 3 µM was 40 to 75%.

For the molecule `Cc1c(-c2cnn(C)c2)c(C(=O)N(C)CC(C)(C)C)n(Cc2ccccc2)c1C(F)(F)F` [Example 04, 1-Benzyl-N,4-dimethyl-3-(1-methyl-1H-pyrazol-4-yl)-N-neopentyl-5-(trifluoromethyl)-1H-pyrrole-2-carboxamide], the inhibition at 3 µM was > 95%.

Consider `COc1cnc(-c2c(C)c(C(F)(F)F)n(Cc3ccccc3)c2C(=O)N2CCOCC2)cn1` [Example 05, (1-Benzyl-3-(5-methoxypyrazin-2-yl)-4-methyl-5-(trifluoromethyl)-1H-pyrrol-2-yl)(morpholino)methanone], for which the inhibition at 3 µM lay in the range of 40 to 75%.

As to `COc1ccc(-c2c(C)c(C(F)(F)F)n(Cc3ccccc3)c2C(=O)N2CCOCC2)cn1` [Example 06, (1-Benzyl-3-(6-methoxypyridin-3-yl)-4-methyl-5-(trifluoromethyl)-1H-pyrrol-2-yl)(morpholino)methanone], the inhibition at 3 µM fell in the range of 75 to 95%.

As for `Cc1c(-c2cnn(C)c2)c(C(=O)N2CCOCC2)n(Cc2ccccc2)c1C(F)(F)F` [Example 08, (1-Benzyl-4-methyl-3-(1-methyl-1H-pyrazol-4-yl)-5-(trifluoromethyl)-1H-pyrrol-2-yl)(morpholino)methanone], the inhibition at 3 µM lay within 40 to 75%.

On to `Cc1c(-c2cn[nH]c2)c(C(=O)N(C)CC(C)(C)C)n(Cc2ccccc2)c1C(F)(F)F` [Example 09, 1-Benzyl-N,4-dimethyl-N-neopentyl-3-(1H-pyrazol-4-yl)-5-(trifluoromethyl)-1H-pyrrole-2-carboxamide], for which the inhibition at 3 µM was 75 to 95%.

Turning to `Cc1c(-c2cn[nH]c2)c(C(=O)N2CCOCC2)n(Cc2ccccc2)c1C(F)(F)F` [Example 10, (1-Benzyl-4-methyl-3-(1H-pyrazol-4-yl)-5-(trifluoromethyl)-1H-pyrrol-2-yl)(morpholino)methanone], the inhibition at 3 µM fell in the range of 40 to 75%.

For the molecule `Cc1c(-c2cncnc2)c(C(=O)N(C)CC(C)(C)C)n(Cc2ccccc2)c1C(F)(F)F` [Example 11, 1-Benzyl-N-(2,2-dimethyl-propyl)-N,4-dimethyl-3-pyrimidin-5-yl-5-(trifluoromethyl)-1H-pyrrole-2-carboxylic acid amide], the inhibition at 3 µM was in the range of 75 to 95%.

Take `COc1ncc(-c2c(C)c(C(F)(F)F)n(Cc3ccccc3)c2C(=O)N(C)CC(C)(C)C)cn1` [Example 12, 1-Benzyl-N-(2,2-dimethyl-propyl)-3-(2-methoxy-pyrimidin-5-yl)-N,4-dimethyl-5-(trifluoromethyl)-1H-pyrrole-2-carboxylic acid amide]: the inhibition at 3 µM fell in the range of 75 to 95%.

Take `Cc1c(-c2ccc(Cl)s2)c(C(=O)N(C)CC(C)(C)C)n(Cc2ccccc2)c1C(F)(F)F` [Example 13, 1-Benzyl-3-(5-chloro-thiophen-2-yl)-N-(2,2-dimethyl-propyl)-N,4-dimethyl-5-(trifluoromethyl)-1H-pyrrole-2-carboxylic acid amide]: the inhibition at 3 µM lay in the range of 75 to 95%.

Consider `COc1ncc(-c2c(C)c(C(F)(F)F)n(Cc3ccccc3)c2C(=O)N2CCOCC2)cn1` [Example 14, [1-Benzyl-3-(2-methoxy-pyrimidin-5-yl)-4-methyl-5-(trifluoromethyl)-1H-pyrrol-2-yl]-morpholin-4-yl-methanone], for which the inhibition at 3 µM lay in the range of 40 to 75%.

`Cc1c(-c2cncnc2)c(C(=O)N2CCOCC2)n(Cc2ccccc2)c1C(F)(F)F` [Example 15, [1-Benzyl-4-methyl-3-pyrimidin-5-yl-5-(trifluoromethyl)-1H-pyrrol-2-yl]-morpholin-4-yl-methanone]: the inhibition at 3 µM lay in the range of 40 to 75%.

Consider `Cc1noc(C)c1-c1c(C)c(C(F)(F)F)n(Cc2ccccc2)c1C(=O)N(C)CC(C)(C)C` [Example 16, 1-Benzyl-3-(3,5-dimethyl-isoxazol-4-yl)-N-(2,2-dimethyl-propyl)-N,4-dimethyl-5-(trifluoromethyl)-1H-pyrrole-2-carboxylic acid amide], for which the inhibition at 3 µM lay in the range of 75 to 95%.

`Cc1c(-c2ncc(C(F)(F)F)cc2F)c(C(=O)N(C)CC(C)(C)C)n(Cc2ccccc2)c1C(F)(F)F` [Example 17, 1-Benzyl-N-(2,2-dimethyl-propyl)-3-[3-fluoro-5-(trifluoromethyl)-pyridin-2-yl]-N,4-dimethyl-5-(trifluoromethyl)-1H-pyrrole-2-carboxylic acid amide]: the inhibition at 3 µM is 75 to 95%.

As to `Cc1c(-c2ncc(Cl)cn2)c(C(=O)N(C)CC(C)(C)C)n(Cc2ccccc2)c1C(F)(F)F` [Example 18, 1-Benzyl-3-(5-chloro-pyrimidin-2-yl)-N-(2,2-dimethyl-propyl)-N,4-dimethyl-5-(trifluoromethyl)-1H-pyrrole-2-carboxylic acid amide], the inhibition at 3 µM was > 95%.

Turning to `Cc1cc(C#N)ncc1-c1c(C)c(C(F)(F)F)n(Cc2ccccc2)c1C(=O)N(C)CC(C)(C)C` [Example 19, 1-Benzyl-3-(6-cyano-4-methylpyridin-3-yl)-N,4-dimethyl-N-neopentyl-5-(trifluoromethyl)-1H-pyrrole-2-carboxamide], the inhibition at 3 µM fell in the range of 75 to 95%.

`Cc1cc(Cl)ncc1-c1c(C)c(C(F)(F)F)n(Cc2ccccc2)c1C(=O)N(C)CC(C)(C)C` [Example 20, 1-Benzyl-3-(6-chloro-4-methyl-pyridin-3-yl)-N-(2,2-dimethyl-propyl)-N,4-dimethyl-5-(trifluoromethyl)-1H-pyrrole-2-carboxylic acid amide]: the inhibition at 3 µM fell in the range of 75 to 95%.

Turning to `COc1cc(C)c(-c2c(C)c(C(F)(F)F)n(Cc3ccccc3)c2C(=O)N(C)CC(C)(C)C)cn1` [Example 21, 1-Benzyl-N-(2,2-dimethyl-propyl)-3-(6-methoxy-4-methyl-pyridin-3-yl)-N,4-dimethyl-5-(trifluoromethyl)-1H-pyrrole-2-carboxylic acid amide], the inhibition at 3 µM fell in the range of 75 to 95%.

On to `Cc1c(-c2ccc(Cl)nn2)c(C(=O)N(C)CC(C)(C)C)n(Cc2ccccc2)c1C(F)(F)F` [Example 22, 1-Benzyl-3-(6-chloro-pyridazin-3-yl)-N-(2,2-dimethyl-propyl)-N,4-dimethyl-5-(trifluoromethyl)-1H-pyrrole-2-carboxylic acid amide], for which the inhibition at 3 µM is > 95%.

As for `Cc1noc(C)c1-c1c(C)c(C(F)(F)F)n(Cc2ccccc2)c1C(=O)N1CCOCC1` [Example 23, [1-Benzyl-3-(3,5-dimethyl-isoxazol-4-yl)-4-methyl-5-(trifluoromethyl)-1H-pyrrol-2-yl]-morpholin-4-yl-methanone], the inhibition at 3 µM was in the range of 75 to 95%.

`Cc1c(-c2ncc(C(F)(F)F)cc2F)c(C(=O)N2CCOCC2)n(Cc2ccccc2)c1C(F)(F)F` [Example 24, [1-Benzyl-3-[3-fluoro-5-(trifluoromethyl)-pyridin-2-yl]-4-methyl-5-(trifluoromethyl)-1H-pyrrol-2-yl]-morpholin-4-yl-methanone]: the inhibition at 3 µM is > 95%.

Take `Cc1c(-c2ncc(Cl)cn2)c(C(=O)N2CCOCC2)n(Cc2ccccc2)c1C(F)(F)F` [Example 25, [1-Benzyl-3-(5-chloro-pyrimidin-2-yl)-4-methyl-5-(trifluoromethyl)-1H-pyrrol-2-yl]-morpholin-4-yl-methanone]: the inhibition at 3 µM is > 95%.
